Measurements as given in US20240150321A1, “PYRAZOLYLSULFONAMIDE COMPOUNDS AND THEIR USE IN THERAPY” (HOTSPOT THERAPEUTICS, INC., priority 2022, published 2024).
Read-outs that look alike come from different tables or passages of the source.

Tests used:
Avi-tagged FL MALT-1 = Avi-tagged FL MALT-1 (Homo sapiens (Human), UniProt Q9UDY8); assay: MALT-1 Fluorogenic Peptide Cleavage Assay (MALT1 inhibition assay); assay type: biochemical; conditions: Ac-LRSR-AMC peptide substrate, 30 min pre-incubation, 90 min reaction at room temperature
Chain of Avi-tagged FL MALT-1 (Q9UDY8 whole entry): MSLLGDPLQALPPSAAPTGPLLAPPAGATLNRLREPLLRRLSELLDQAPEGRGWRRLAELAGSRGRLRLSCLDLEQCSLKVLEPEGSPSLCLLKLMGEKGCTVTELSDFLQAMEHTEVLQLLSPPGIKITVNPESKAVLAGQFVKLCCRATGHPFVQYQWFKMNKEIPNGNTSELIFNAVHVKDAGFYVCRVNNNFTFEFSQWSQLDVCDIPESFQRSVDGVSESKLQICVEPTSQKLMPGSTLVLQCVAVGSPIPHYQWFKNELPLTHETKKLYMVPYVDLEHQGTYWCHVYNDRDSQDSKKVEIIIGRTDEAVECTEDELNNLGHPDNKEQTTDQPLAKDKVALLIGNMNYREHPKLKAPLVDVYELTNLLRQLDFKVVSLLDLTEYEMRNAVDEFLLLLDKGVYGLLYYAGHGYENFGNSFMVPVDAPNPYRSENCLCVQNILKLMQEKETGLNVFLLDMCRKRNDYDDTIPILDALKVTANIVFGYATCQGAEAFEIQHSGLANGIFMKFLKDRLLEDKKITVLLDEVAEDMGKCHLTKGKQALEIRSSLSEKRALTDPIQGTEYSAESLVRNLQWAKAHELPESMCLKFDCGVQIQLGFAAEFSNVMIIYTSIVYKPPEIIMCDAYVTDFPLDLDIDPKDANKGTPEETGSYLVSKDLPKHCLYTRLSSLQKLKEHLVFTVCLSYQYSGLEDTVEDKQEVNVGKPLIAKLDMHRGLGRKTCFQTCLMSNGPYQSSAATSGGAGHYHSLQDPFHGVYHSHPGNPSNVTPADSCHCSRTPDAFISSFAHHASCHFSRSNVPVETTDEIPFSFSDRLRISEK
How it was run: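 Cleavage of Ac-LRSR-AMC, read as fluorescence at 342/441 nm after 90 min at room temperature, with substrate working stocks of 50 μM (Km) or 280 μM (10×Km). Enzyme, Avi-tagged full-length MALT-1 (40 nM stock), was first pre-incubated 30 min with compound in citrate/HEPES pH 6.89 buffer with TCEP, EDTA, CHAPS and 2% DMSO; IC50 fitted from normalised % inhibition.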

[1] = test system: NF-kB reporter in Jurkat cells; assay: NF-kB reporter assay in Jurkat cells stimulated with aCD3/aCD28/PMA; assay type: cell-based; conditions: read-out: NF-kB Reporter Assay IC50
How it was run: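 Luminescence (One-Glo) from the NF-kB reporter yielded IC50 values. Stimulation lasted 4 h at 37° C with aCD3, aCD28 and PMA (final 5, 5 and 0.03 […]), after 1 h compound pre-exposure of 25,000 Jurkat cells per well in serum-free RPMI.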

[2] = Homo sapiens, Jurkat cells, 1 hr compound pre-incubation, aCD3/aCD28/PMA stimulation 4 hr, One-Glo readout

Row | Compound | IC50 (Avi-tagged FL MALT-1) [nM] | IC50 [1, 2] [nM] | IC50 ([1]; Jurkat cells, 1 hr compound pre-incubation, aCD3/aCD28/PMA stimulation 4 hr, One-Glo readout) [nM] | IC50 ([1]; Homo sapiens, Jurkat) [nM]
1 | COc1ncc2cnn(C)c2c1NS(=O)(=O)c1cnn(-c2cc(N3CC4CC3C4)ccn2)c1 [Compound I-436] | 1000 to 2500 | < 400 |  | 
2 | Cn1ncc2cncc(NS(=O)(=O)c3cnn(-c4cc(C(C)(F)F)ccn4)c3)c21 [Compound I-120, 1-(4-(1,1-Difluoroethyl)Pyridin-2-yl)-N-(1-Methyl-1H-Pyrazolo[4,3-C]Pyridin-7-yl)-1H-Pyrazole-4-Sulfonamide] | > 2500 | > 2500 |  | 
3 | [2H]C([2H])([2H])n1ncc2ccc(OC)c(NS(=O)(=O)c3cnn(-c4cc(C(C)(F)F)ccn4)c3)c21 [Compound I-412, 1-(4-(1,1-Difluoroethyl)Pyridin-2-yl)-N-(6-Methoxy-1-(Methyl-D3)-1H-Indazol-7-yl)-1H-Pyrazole-4-Sulfonamide] | ≤ 400 | < 400 |  | 
4 | COc1ccc2[nH]nc(C)c2c1N(C)S(=O)(=O)c1cnn(-c2ccnc(C(F)(F)F)c2)c1 [Compound I-80, N-(5-methoxy-3-Methyl-1H-Indazol-4-yl)-N-Methyl-1-(2-(Trifluoromethyl)Pyridin-4-yl)-1H-Pyrazole-4-Sulfonamide] | ≤ 400 | 1000 to 2500 |  | 
5 | N-(6-Methoxy-1-Methyl-1H-Indazol-7-yl)-1-(4-(Trifluoromethyl)Pyridin-2-yl)-1H-Pyrazole-4-Sulfonamide [Compound I-5] | ≤ 400 |  | < 400 | 
6 | CCN(c1c(OC)ccc2cnn(C)c12)S(=O)(=O)c1cnn(-c2ccnc(C(F)(F)F)c2)c1 [Compound I-26, N-(6-Methoxy-1-Methyl-1H-Indazol-7-yl)-N-Ethyl-1-(2-(Trifluoromethyl)Pyridin-4-yl)-1H-Pyrazole-4-Sulfonamide] | ≤ 400 | < 400 |  | 
7 | COc1ccc2cnn(C)c2c1NS(=O)(=O)c1cnn(-c2cc([C@H](C)N3CCCCC3)ccn2)c1 [Compound I-462, (S)—N-(6-Methoxy-1-Methyl-1H-Indazol-7-yl)-1-(4-(1-(Piperidin-1-yl)Ethyl)Pyridin-2-yl)-1H-Pyrazole-4-Sulfonamide] | > 2500 | < 400 |  | 
8 | COc1ccnc(-n2cc(S(=O)(=O)Nc3cccc4cnn(C)c34)cn2)c1 [Compound I-146, 1-(4-methoxypyridin-2-yl)-N-(1-methylindazol-7-yl)pyrazole-4-sulfonamide] | > 2500 | < 400 |  | 
9 | C#Cc1ccc2cnn(C)c2c1NS(=O)(=O)c1cnn(-c2ccnc(C(F)(F)F)c2)c1 [Compound I-8, N-(6-Ethynyl-1-Methylindazol-7-yl)-1-(2-(Trifluoromethyl) Pyridin-4-yl)-Pyrazole-4-Sulfonamide] | ≤ 400 | 400 to 1000 |  | 
10 | CC(=O)N1CC(c2ccnc(-n3cc(S(=O)(=O)Nc4cccc5cnn(C)c45)cn3)c2)C1 [Compound I-326] | > 2500 | > 2500 |  | 
11 | Cn1ncc2ccc(OC(F)(F)F)c(N(S(=O)(=O)c3cnn(-c4cc(C(F)(F)F)ccn4)c3)S(=O)(=O)c3cnn(-c4cc(C(F)(F)F)ccn4)c3)c21 [Compound I-337, N-[1-methyl-6-(trifluoromethoxy)indazol-7-yl]-1-[4-(trifluoromethyl)pyridin-2-yl]-N-{1-[4-(trifluoromethyl)pyridin-2-yl]pyrazol-4-ylsulfonyl}pyrazole-4-sulfonamide] | > 2500 | > 2500 |  | 
12 | O=S(=O)(Nc1cccc2cnn(C(F)F)c12)c1cnn(-c2cc(Cl)ccn2)c1 [Compound I-110, 1-(4-chloropyridin-2-yl)-N-[1-(difluoromethyl)indazol-7-yl]pyrazole-4-sulfonamide] | > 2500 | > 2500 |  | 
13 | Cn1ncc2cccc(NS(=O)(=O)c3cnn(-c4cc(C5(O)CCC5)ccn4)c3)c21 [Compound I-107, 1-(4-(1-Hydroxycyclobutyl)Pyridin-2-yl)-N-(1-Methyl-1H-Indazol-7-yl)-1H-Pyrazole-4-Sulfonamide] | > 2500 |  |  | < 400
14 | COC[C@](C)(OC)c1ccnc(-n2cc(S(=O)(=O)Nc3cccc4cnn(C)c34)cn2)c1 [Compound I-300] | > 2500 | < 400 |  | 
